One may read the EC50 as the concentration at which the effect is half-maximal.

Residues, ends and D or L forms follow the SMILES beside them.

Here are results for eight compounds from ChEMBL document CHEMBL1221226 (Nat Chem Biol, 2009).

For assay [1], the target named is Glucagon-like peptide 1 receptor (Homo sapiens, UniProt P43220). As to the kind of experiment: Agonist activity at GLP1R expressed in HEK293 cells assessed as stimulation of cAMP production by luciferase reporter gene assay. The assay is classed as functional, cell-based. (Cyclic AMP is a second messenger, typically raised through Gs and lowered through Gi signalling.)

For the next assay, the target named is Glucagon receptor (Homo sapiens, UniProt P47871). As to the kind of experiment: Agonist activity at GCGR expressed in HEK293 cells assessed as stimulation of cAMP production by luciferase reporter gene assay. The assay is classed as functional, cell-based.
Glucagon receptor, sequence (P47871 whole entry): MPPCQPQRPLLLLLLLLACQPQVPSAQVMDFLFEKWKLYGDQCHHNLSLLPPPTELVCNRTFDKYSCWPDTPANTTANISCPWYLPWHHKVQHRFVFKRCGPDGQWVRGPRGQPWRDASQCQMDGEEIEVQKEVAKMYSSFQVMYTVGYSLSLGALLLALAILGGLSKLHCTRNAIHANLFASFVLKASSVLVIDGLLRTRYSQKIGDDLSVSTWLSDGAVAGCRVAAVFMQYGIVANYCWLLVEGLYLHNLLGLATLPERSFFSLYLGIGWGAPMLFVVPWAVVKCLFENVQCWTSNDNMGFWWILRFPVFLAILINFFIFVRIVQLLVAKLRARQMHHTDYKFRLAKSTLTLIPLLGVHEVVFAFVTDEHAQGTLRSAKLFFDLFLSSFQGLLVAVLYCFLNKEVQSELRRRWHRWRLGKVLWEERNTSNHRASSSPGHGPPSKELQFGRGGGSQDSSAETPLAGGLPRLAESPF

Glucagon-like peptide 1 receptor, sequence (P43220 whole entry): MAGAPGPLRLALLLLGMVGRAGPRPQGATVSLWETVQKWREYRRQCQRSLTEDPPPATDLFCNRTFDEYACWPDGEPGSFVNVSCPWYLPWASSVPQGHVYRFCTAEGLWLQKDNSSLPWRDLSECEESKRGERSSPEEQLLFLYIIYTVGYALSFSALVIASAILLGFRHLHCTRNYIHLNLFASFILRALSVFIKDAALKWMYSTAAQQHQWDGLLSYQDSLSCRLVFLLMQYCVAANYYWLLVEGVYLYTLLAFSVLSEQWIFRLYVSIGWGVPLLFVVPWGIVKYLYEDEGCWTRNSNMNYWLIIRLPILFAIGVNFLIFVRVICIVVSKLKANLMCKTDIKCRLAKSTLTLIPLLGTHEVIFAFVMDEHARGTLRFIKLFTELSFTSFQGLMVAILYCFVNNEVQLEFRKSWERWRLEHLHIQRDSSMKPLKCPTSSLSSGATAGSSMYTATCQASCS

In the case of `CSCC[C@H](NC(=O)[C@H](CC(C)C)NC(=O)[C@H](Cc1c[nH]c2ccccc12)NC(=O)[C@H](CCC(N)=O)NC(=O)[C@@H](NC(=O)[C@H](Cc1ccccc1)NC(=O)[C@H](CC(=O)O)NC(=O)[C@H](CCC(N)=O)NC(=O)[C@H](C)NC(=O)[C@H](CCCN=C(N)N)NC(=O)[C@H](CCCN=C(N)N)NC(=O)CNC(=O)[C@H](CC(=O)O)NC(=O)[C@H](CC(C)C)NC(=O)[C@H](Cc1ccc(O)cc1)NC(=O)[C@H](CCCCN)NC(=O)[C@H](CO)NC(=O)[C@H](Cc1ccc(O)cc1)NC(=O)[C@H](CC(=O)O)NC(=O)[C@H](CO)NC(=O)[C@@H](NC(=O)[C@H](Cc1ccccc1)NC(=O)[C@@H](NC(=O)CNC(=O)[C@H](CCC(N)=O)NC(=O)[C@H](CO)N[C@@H](Cc1cnc[nH]1)C(=O)O)[C@@H](C)O)[C@@H](C)O)C(C)C)C(=O)N[C@@H](CC(N)=O)C(=O)N[C@H](C(N)=O)[C@@H](C)O`, the EC50 is 0.58 nM in assay [1] and 0.13 nM at Glucagon receptor.
For `CC[C@H](C)[C@H](NC(=O)[C@H](Cc1ccccc1)NC(=O)[C@H](CC(=O)O)NC(=O)[C@H](CCCCN)NC(=O)[C@H](C)NC(=O)[C@H](CCCNC(=N)N)NC(=O)[C@H](CCCNC(=N)N)NC(=O)[C@H](CCC(=O)O)NC(=O)[C@H](CC(=O)O)NC(=O)[C@H](CC(C)C)NC(=O)[C@H](Cc1ccc(O)cc1)NC(=O)[C@H](CCCCN)NC(=O)[C@H](CO)NC(=O)[C@H](Cc1ccc(O)cc1)NC(=O)[C@H](CC(=O)O)NC(=O)[C@H](CO)NC(=O)[C@@H](NC(=O)[C@H](Cc1ccccc1)NC(=O)[C@@H](NC(=O)CNC(=O)[C@H](CCC(N)=O)NC(=O)[C@H](CO)N[C@@H](Cc1cnc[nH]1)C(=O)O)[C@@H](C)O)[C@@H](C)O)C(=O)N[C@@H](CCC(N)=O)C(=O)N[C@@H](Cc1c[nH]c2ccccc12)C(=O)N[C@@H](CC(C)C)C(=O)N[C@@H](CCSC)C(=O)N[C@@H](CC(N)=O)C(=O)N[C@H](C(=O)N[C@H](C(N)=O)[C@@H](C)O)[C@@H](C)O` the same measures were 0.068 nM and 0.073 nM.
For `CSCC[C@H](NC(=O)[C@H](CC(C)C)NC(=O)[C@H](Cc1c[nH]c2ccccc12)NC(=O)[C@H](CCC(N)=O)NC(=O)[C@@H](NC(=O)[C@H](Cc1ccccc1)NC(=O)[C@H](CC(=O)O)NC(=O)[C@H](CCC(N)=O)NC(=O)[C@H](C)NC(=O)[C@H](CCCNC(=N)N)NC(=O)[C@H](CCCNC(=N)N)NC(=O)[C@H](CCC(=O)O)NC(=O)[C@H](CC(=O)O)NC(=O)[C@H](CC(C)C)NC(=O)[C@H](Cc1ccc(O)cc1)NC(=O)[C@H](CCCCN)NC(=O)[C@H](CO)NC(=O)[C@H](Cc1ccc(O)cc1)NC(=O)[C@H](CC(=O)O)NC(=O)[C@H](CO)NC(=O)[C@@H](NC(=O)[C@H](Cc1ccccc1)NC(=O)[C@@H](NC(=O)CNC(=O)[C@H](CCC(=O)O)NC(=O)[C@H](CO)N[C@@H](Cc1cnc[nH]1)C(=O)O)[C@@H](C)O)[C@@H](C)O)C(C)C)C(=O)N[C@@H](CC(N)=O)C(=O)N[C@H](C(N)=O)[C@@H](C)O` the same measures were 0.11 nM and 3.7 nM.
For the compound `CC[C@H](C)[C@H](NC(=O)[C@H](Cc1ccccc1)NC(=O)[C@H](CCC(=O)O)NC(=O)[C@H](CCCCN)NC(=O)[C@H](C)NC(=O)[C@H](C)NC(=O)[C@H](CCC(N)=O)NC(=O)[C@H](CCC(=O)O)NC(=O)[C@H](CC(=O)O)NC(=O)[C@H](CC(C)C)NC(=O)[C@H](Cc1ccc(O)cc1)NC(=O)[C@H](CCCCN)NC(=O)[C@H](CO)NC(=O)[C@H](Cc1ccc(O)cc1)NC(=O)[C@H](CC(=O)O)NC(=O)[C@H](CO)NC(=O)[C@@H](NC(=O)[C@H](Cc1ccccc1)NC(=O)[C@@H](NC(=O)CNC(=O)[C@H](CCC(N)=O)NC(=O)[C@H](CO)NC(=O)[C@@H](N)Cc1cnc[nH]1)[C@@H](C)O)[C@@H](C)O)C(=O)N[C@@H](C)C(=O)N[C@@H](Cc1c[nH]c2ccccc12)C(=O)N[C@@H](CC(C)C)C(=O)N[C@H](C(=O)N[C@@H](CCCCN)C(=O)NCC(=O)O)C(C)C` (H-HSQGTFTSDYSKYLDEQAAKEFIAWLVKG-OH), the EC50 in assay [1] (hek293) was determined as 0.015 nM; at Glucagon receptor (hek293), 0.47 nM.
`CSCC[C@H](NC(=O)[C@H](CC(C)C)NC(=O)[C@H](Cc1c[nH]c2ccccc12)NC(=O)[C@H](CCC(N)=O)NC(=O)[C@@H](NC(=O)[C@H](Cc1ccccc1)NC(=O)[C@H](CC(=O)O)NC(=O)[C@@H]1CCCCNC(=O)CC[C@H](NC(=O)[C@H](CC(=O)O)NC(=O)[C@H](CC(C)C)NC(=O)[C@H](Cc2ccc(O)cc2)NC(=O)[C@H](CCCCN)NC(=O)[C@H](CO)NC(=O)[C@H](Cc2ccc(O)cc2)NC(=O)[C@H](CC(=O)O)NC(=O)[C@H](CO)NC(=O)[C@@H](NC(=O)[C@H](Cc2ccccc2)NC(=O)[C@@H](NC(=O)CNC(=O)[C@H](CCC(N)=O)NC(=O)[C@H](CO)N[C@@H](Cc2cnc[nH]2)C(=O)O)[C@@H](C)O)[C@@H](C)O)C(=O)N[C@@H](CCCNC(=N)N)C(=O)N[C@@H](CCCNC(=N)N)C(=O)N[C@@H](C)C(=O)N1)C(C)C)C(=O)N[C@@H](CC(N)=O)C(=O)N[C@H](C(=O)O)[C@@H](C)O`: the concentration for a half-maximal effect (EC50) in assay [1] turned out to be 0.049 nM; on Glucagon receptor it was 0.058 nM.
For `CSCC[C@@H]1NC(=O)[C@H](CC(C)C)NC(=O)[C@H](Cc2c[nH]c3ccccc23)NC(=O)[C@@H](NC(=O)[C@@H](NC(=O)[C@H](Cc2ccccc2)NC(=O)[C@H](CC(=O)O)NC(=O)[C@H](CCC(N)=O)NC(=O)[C@H](C)NC(=O)[C@H](CCCN=C(N)N)NC(=O)[C@H](CCCN=C(N)N)NC(=O)[C@H](CO)NC(=O)[C@H](CC(=O)O)NC(=O)[C@H](CC(C)C)NC(=O)[C@H](Cc2ccc(O)cc2)NC(=O)[C@H](CCCCN)NC(=O)[C@H](CO)NC(=O)[C@H](Cc2ccc(O)cc2)NC(=O)[C@H](CC(=O)O)NC(=O)[C@H](CO)NC(=O)[C@@H](NC(=O)[C@H](Cc2ccccc2)NC(=O)[C@@H](NC(=O)CNC(=O)[C@H](CCC(N)=O)NC(=O)[C@H](CO)N[C@@H](Cc2cnc[nH]2)C(=O)O)[C@@H](C)O)[C@@H](C)O)C(C)C)CCC(=O)NCCCC[C@@H](C(=O)N[C@H](C(=O)O)[C@@H](C)O)NC1=O` the same measures were 0.18 nM and 0.076 nM.
For `CSCC[C@H](NC(=O)[C@H](CC(C)C)NC(=O)[C@H](Cc1c[nH]c2ccccc12)NC(=O)[C@H](CCC(N)=O)NC(=O)[C@@H](NC(=O)[C@H](Cc1ccccc1)NC(=O)[C@H](CC(=O)O)NC(=O)[C@H](CCC(N)=O)NC(=O)[C@H](C)NC(=O)[C@H](CCCNC(=N)N)NC(=O)[C@H](CCCNC(=N)N)NC(=O)[C@H](CCS(=O)(=O)O)NC(=O)[C@H](CC(=O)O)NC(=O)[C@H](CC(C)C)NC(=O)[C@H](Cc1ccc(O)cc1)NC(=O)[C@H](CCCCN)NC(=O)[C@H](CO)NC(=O)[C@H](Cc1ccc(O)cc1)NC(=O)[C@H](CC(=O)O)NC(=O)[C@H](CO)NC(=O)[C@@H](NC(=O)[C@H](Cc1ccccc1)NC(=O)[C@@H](NC(=O)CNC(=O)[C@H](CCC(N)=O)NC(=O)[C@H](CO)N[C@@H](Cc1cnc[nH]1)C(=O)O)[C@@H](C)O)[C@@H](C)O)C(C)C)C(=O)N[C@@H](CC(N)=O)C(=O)N[C@H](C(N)=O)[C@@H](C)O` the same measures were 0.12 nM and 0.1 nM.
On to `CSCC[C@H](NC(=O)[C@H](CC(C)C)NC(=O)[C@H](Cc1c[nH]c2ccccc12)NC(=O)[C@H](CCC(N)=O)NC(=O)[C@@H](NC(=O)[C@H](Cc1ccccc1)NC(=O)[C@H](CC(=O)O)NC(=O)[C@H](CCCCN)NC(=O)[C@H](C)NC(=O)[C@H](C)NC(=O)[C@H](CCCNC(=N)N)NC(=O)[C@H](CCC(=O)O)NC(=O)[C@H](CC(=O)O)NC(=O)[C@H](CC(C)C)NC(=O)[C@H](Cc1ccc(O)cc1)NC(=O)[C@H](CCCCN)NC(=O)[C@H](CO)NC(=O)[C@H](Cc1ccc(O)cc1)NC(=O)[C@H](CC(=O)O)NC(=O)[C@H](CO)NC(=O)[C@@H](NC(=O)[C@H](Cc1ccccc1)NC(=O)[C@@H](NC(=O)CNC(=O)[C@H](CCC(N)=O)NC(=O)[C@H](CO)N[C@@H](Cc1cnc[nH]1)C(=O)O)[C@@H](C)O)[C@@H](C)O)C(C)C)C(=O)N[C@@H](CC(N)=O)C(=O)N[C@H](C(N)=O)[C@@H](C)O`, for which the EC50 in assay [1] was found to be 0.028 nM; at Glucagon receptor, 0.087 nM.
